Experimental data taken from patent US7868007B2, “Triazolopyridine carboxamide derivatives, preparation thereof and therapeutic use thereof” (sanofi-aventis, priority 2007, dated 2011).

What was measured:
[1] = target: T1, MGL (monoacyl glycerol lipase) enzyme (Mus musculus, UniProt O35678); test: radioenzymatic assay of MGL inhibition (hydrolysis of [3H] 2-OG by mouse brain homogenate); type: biochemical; conditions: 50 μM 2-OG with [3H] 2-OG, 20 minutes preincubation, 20 minutes incubation at ambient temperature, read-out: IC50 (concentration which inhibits 50% of the control enzymatic activity of MGL)
T1 construct: the source of MGL enzyme is a homogenate of mouse brain from which the cerebellum and the medulla oblongata have been removed; from tissue; host or cells: mouse brain homogenate (cerebellum and medulla oblongata removed)
T1 sequence (O35678 1-303): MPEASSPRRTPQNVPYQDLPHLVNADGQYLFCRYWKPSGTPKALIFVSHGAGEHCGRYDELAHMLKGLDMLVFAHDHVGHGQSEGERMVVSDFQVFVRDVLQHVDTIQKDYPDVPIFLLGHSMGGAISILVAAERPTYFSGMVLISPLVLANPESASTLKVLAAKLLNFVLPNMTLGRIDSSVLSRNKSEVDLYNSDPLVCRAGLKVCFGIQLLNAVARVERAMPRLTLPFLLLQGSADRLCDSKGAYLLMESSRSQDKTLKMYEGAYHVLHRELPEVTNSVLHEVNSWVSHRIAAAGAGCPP
Protocol: The inhibitory activity with respect to MGL is given by the concentration which inhibits 50% of the activity of MGL.
The inhibitory activity was measured in a radioenzymatic assay based on measuring the product of hydrolysis of 2-oleoyl glycerol ([^3H] 2-OG) by MGL. The products of hydrolysis of [^3H] 2-OG, labeled on the glycerol, are oleic acid and [^3H]glycerol, and the source of MGL enzyme is a homogenate of mouse brain from which the cerebellum and the medulla oblongata have been removed. The mouse brains are removed, and stored at −80° C. until they are used or homogenized immediately for twice 5 seconds using a Precellys apparatus at 5000 rpm (Bertin) in a 10 mM tris-HCl, 150 mM NaCl, 1 mM EDTA buffer (pH 8) at 4° C. The concentration of the homogenates is then adjusted to 7.5 μg/μl.
The dilution series of the compounds is prepared from stock solutions at 20 mM in 100% DMSO. […]
Assaying of the MGL activity is carried out in a 96-well microplate in a final reaction volume of 100 μl. […] After stirring for 10 minutes, the microplate is centrifuged for 15 minutes at 4000 g and a 30 μl aliquot of the aqueous phase containing the [^3H]glycerol produced is removed and then counted for 5 minutes by liquid scintillation (Wallac 1450 Microbeta).

| IC50 [1] [nM] | melting point | SMILES |
| --- | --- | --- |
| – | 167 to 169 °C (dec.) | O=C(N1CCN(C(c2ccc(F)cc2)c2ccc(F)cc2)CC1)n1nnc2ncc(Cl)cc21 [Compound 5, {4-[Bis(4-fluorophenyl)methyl]piperazin-1-yl}(6-chloro[1,2,3]triazolo[4,5-b]pyridin-1-yl)-methanone] |
| 25 | 190 to 194 °C (dec.) | O=C(N1CCN(C2c3ccccc3CCc3ccccc32)CC1)n1nnc2ncccc21 [Compound 7, [4-(10,11-Dihydro-5H-dibenzo[a,d]cyclohepten-5-yl)piperazin-1-yl][1,2,3]triazolo[4,5-b]-pyridin-1-ylmethanone] |
| – | 170 to 172 °C (dec.) | O=C(N1CCN(C2c3ccccc3-c3ccccc32)CC1)n1nnc2ncccc21 [Compound 8, [4-(9H-Fluoren-9-yl)piperazin-1-yl][1,2,3]triazolo[4,5-b]pyridin-1-ylmethanone] |

Further lines, the compound ahead of its results:

| SMILES | IC50 [1] [nM] | melting point |
| --- | --- | --- |
| O=C(N1CCN(C(c2ccccc2)c2ccccc2)CC1)n1nnc2ncccc21 [Compound 1, (4-Benzhydrylpiperazin-1-yl)[1,2,3]triazolo[4,5-b]pyridin-1-ylmethanone] | 4 | 146 to 148 °C (dec.) |
| O=C(N1CCN(C(c2ccccc2)c2ccccc2)CC1)n1nnc2ncc(Cl)cc21 [Compound 2, (4-Benzhydrylpiperazin-1-yl)(6-chloro[1,2,3]triazolo[4,5-b]pyridin-1-yl)methanone] | – | 173 to 175 °C (dec.) |
| O=C(N1CCN(C(c2ccc(F)cc2)c2ccc(F)cc2)CC1)n1nnc2ncccc21 [Compound 3, {4-[Bis(4-fluorophenyl)methyl]piperazin-1-yl}[1,2,3]triazolo[4,5-b]pyridin-1-ylmethanone] | – | 151 to 153 °C (dec.) |
| O=C(N1CCN(C(c2ccc(Cl)cc2)c2ccc(Cl)cc2)CC1)n1nnc2ncccc21 [Compound 4, {4-[Bis(4-chlorophenyl)methyl]piperazin-1-yl}[1,2,3]triazolo[4,5-b]pyridin-1-ylmethanone] | – | 163 to 165 °C (dec.) |
